{
  "source": "paper PMC12655529",
  "about": "“Serendipitous Hinge Modulation Hypothetically Reprograms Caerin 1.1-LC Antibacterial Mechanism and Gram-Negative Selectivity” (Pharmaceutics, 2025)",
  "key": {"[1]": {"tested_on": "Escherichia coli ATCC 8739", "type": "cell-based", "settings": "ATCC 8739", "procedure": "(§1) The antimicrobial activities of the peptides were evaluated by determining their minimal inhibitory concentration (MIC) and minimal bactericidal concentration (MBC) values following reported protocols [20]. The tested microorganisms included seven Gram-negative bacterial strains (Escherichia coli ATCC 8739, E. coli ATCC-BAA 2340, E. coli NCTC 13846, Klebsiella pneumoniae ATCC 43816, K. pneumoniae ATCC BAA-2342, Pseudomonas aeruginosa ATCC 9027, Acinetobacter baumannii ATCC BAA-747), three Gram-positive bacterial strains (Staphylococcus aureus ATCC 6538, Enterococcus faecalis NCTC 12697, MRSA NCTC 12493, and the fungal strain Candida albicans ATCC 10231. For the assay, each bacterial strain was cultured overnight at 37 °C in 100 mL of medium in a flask. The cultures were then subcultured to reach the logarithmic growth phase and diluted to 5 × 10^5 CFU/mL. Peptide samples were serially diluted two-fold in microplates, with concentrations ranging from 128 μM to 1 μM. The diluted bacterial suspensions were mixed with the peptide solutions and incubated overnight at 37 °C. The MIC values were determined by measuring the absorbance of each well using a Synergy HT plate reader (Agilent, Cheshire, UK). For MBC determination, aliquots from wells showing no visible growth were inoculated onto agar plates to assess bacterial viability. Each experiment was repeated independently three times and conducted in three independent replicates."}, "E. coli ATCC BAA-2340": {"tested_on": "E. coli ATCC BAA-2340", "type": "cell-based, Escherichia coli", "procedure": "as §1"}, "E. coli NCTC 13846": {"tested_on": "E. coli NCTC 13846", "type": "cell-based, Escherichia coli", "procedure": "as §1"}, "[2]": {"tested_on": "Klebsiella pneumoniae ATCC 43816", "type": "cell-based", "settings": "ATCC 43816"}, "[3]": {"tested_on": "K. pneumoniae ATCC BAA-2342", "type": "cell-based, Klebsiella pneumoniae", "procedure": "as §1"}, "[4]": {"tested_on": "Pseudomonas aeruginosa ATCC 9027", "type": "cell-based", "procedure": "as §1"}, "[5]": {"tested_on": "Acinetobacter baumannii ATCC BAA-747", "type": "cell-based", "settings": "ATCC BAA-747"}, "[6]": {"tested_on": "Staphylococcus aureus ATCC 6538", "type": "cell-based", "settings": "ATCC 6538", "procedure": "as §1"}, "[7]": {"tested_on": "Enterococcus faecalis NCTC 12697", "type": "cell-based", "settings": "NCTC 12697", "procedure": "as §1"}, "MRSA NCTC 12493": {"tested_on": "MRSA NCTC 12493", "type": "cell-based, Staphylococcus aureus"}, "horse red blood cells": {"tested_on": "horse red blood cells", "test": "Haemolysis assay", "type": "cell-based", "settings": "concentration inducing 10% haemolysis of horse erythrocytes; 4% (v/v) in PBS, 2 h, 37 °C, absorbance 570 nm; no haemolysis at maximum testing concentration (128 μM) recorded as 256 μM", "how_it_was_run": "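Horse erythrocytes, PBS-washed, at 4% (v/v) in PBS were exposed to peptide over a concentration range for 2 h at 37 °C. Supernatant absorbance at 570 nm was read after centrifugation. Haemolysis % was normalised between PBS blank (0%) and 0.1% Triton X-100 (100%).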"}, "Gram-negative bacteria": {"tested_on": "Gram-negative bacteria", "test": "Geometric mean MIC and therapeutic index, Gram-negative", "type": "cell-based", "settings": "geometric mean of MICs"}, "Gram-positive bacteria": {"tested_on": "Gram-positive bacteria", "test": "Geometric mean MIC and therapeutic index, Gram-positive", "type": "cell-based", "settings": "geometric mean of MICs"}, "E. coli (ATCC-BAA 2340)": {"tested_on": "E. coli (ATCC-BAA 2340)", "type": "cell-based, Escherichia coli", "settings": "ATCC-BAA 2340", "how_it_was_run": "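E. coli MIC by broth microdilution, determined after bacteria were pre-exposed to media with 150 mM NaCl, 4.5 mM KCl, 2 mM CaCl2, 1 mM MgCl2, 8 µM ZnCl2, 6 µM NH4Cl, 4 µM FeCl3, or 10% FBS. Three independent experiments, each in triplicate.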"}},
  "note": "Square brackets hold non-standard residues; d marks the D form. Peptide text beside a SMILES is read from it.",
  "data": [
    {"compound": "CC[C@H](C)[C@H](NC(=O)[C@H](CCCCN)NC(=O)[C@@H]1CCCN1C(=O)[C@@H](CC(C)C)NC(=O)[C@H](C)NC(=O)[C@H](CCCCN)NC(=O)[C@@H]1CCCN1C(=O)[C@@H](NC(=O)[C@@H](NC(=O)[C@H](CC(C)C)NC(=O)[C@H](CCCCN)NC(=O)[C@H](CC(C)C)NC(=O)[C@H](CO)NC(=O)CNC(=O)[C@H](CC(C)C)NC(=O)[C@@H](NC(=O)[C@H](CO)NC(=O)[C@H](CC(C)C)NC(=O)[C@H](CC(C)C)NC(=O)CN)C(C)C)[C@@H](C)CC)C(C)C)C(=O)N[C@@H](C)C(=O)N[C@@H](CCC(=O)O)C(=O)N[C@@H](CCCCN)C(=O)N[C@@H](CC(C)C)C(N)=O", "note": "[Caerin 1.1-LC PKAL(D)P] (H-GLLSVLGSLKLIVPKA[dL]PKIAEKL-NH2; N-terminus assumed)", "values": [
      {"measurement": "MBC, E. coli (ATCC 8739)", "setting": "[1]", "value": 2, "unit": "µM"},
      {"measurement": "MIC, E. coli (ATCC 8739)", "setting": "[1]", "value": 2, "unit": "µM"},
      {"measurement": "MBC, E. coli (ATCC BAA-2340)", "setting": "E. coli ATCC BAA-2340", "value": 2, "unit": "µM"},
      {"measurement": "MIC, E. coli (ATCC BAA-2340)", "setting": "E. coli ATCC BAA-2340", "value": 2, "unit": "µM"},
      {"measurement": "MBC, E. coli (NCTC 13846)", "setting": "E. coli NCTC 13846", "value": 8, "unit": "µM"},
      {"measurement": "MIC, E. coli (NCTC 13846)", "setting": "E. coli NCTC 13846", "value": 8, "unit": "µM"},
      {"measurement": "MBC, K. pneumoniae (ATCC 43816)", "setting": "[2]", "value": 4, "unit": "µM"},
      {"measurement": "MIC, K. pneumoniae (ATCC 43816)", "setting": "[2]", "value": 4, "unit": "µM"},
      {"measurement": "MBC, K. pneumoniae (ATCC BAA-2342)", "setting": "[3]", "value": 4, "unit": "µM"},
      {"measurement": "MIC, K. pneumoniae (ATCC BAA-2342)", "setting": "[3]", "value": 4, "unit": "µM"},
      {"measurement": "MBC, P. aeruginosa (ATCC 9027)", "setting": "[4]", "value": "4/4 µM"},
      {"measurement": "MIC, P. aeruginosa (ATCC 9027)", "setting": "[4]", "value": "4/4 µM"},
      {"measurement": "MBC, A. baumannii (ATCC BAA-747)", "setting": "[5]", "value": 32, "unit": "µM"},
      {"measurement": "MIC, A. baumannii (ATCC BAA-747)", "setting": "[5]", "value": 32, "unit": "µM"},
      {"measurement": "MBC, S. aureus (ATCC 6538)", "setting": "[6]", "value": 32, "unit": "µM"},
      {"measurement": "MIC, S. aureus (ATCC 6538)", "setting": "[6]", "value": 32, "unit": "µM"},
      {"measurement": "MBC, E. faecalis (NCTC 12697)", "setting": "[7]", "value": ">128", "unit": "µM"},
      {"measurement": "MIC, E. faecalis (NCTC 12697)", "setting": "[7]", "value": ">128", "unit": "µM"},
      {"measurement": "MBC, MRSA (NCTC 12493)", "setting": "MRSA NCTC 12493", "value": 8, "unit": "µM"},
      {"measurement": "MIC, MRSA (NCTC 12493)", "setting": "MRSA NCTC 12493", "value": 4, "unit": "µM"},
      {"measurement": "HC10", "setting": "horse red blood cells", "value": 43.4, "unit": "µM"},
      {"measurement": "GM MIC Gram-Negative", "setting": "Gram-negative bacteria", "value": 4.87, "unit": "µM"},
      {"measurement": "GM MIC Gram-Positive", "setting": "Gram-positive bacteria", "value": 64, "unit": "µM"},
      {"measurement": "MIC, Ca^2+", "setting": "E. coli (ATCC-BAA 2340)", "value": 128, "unit": "µM"},
      {"measurement": "MIC, Control", "setting": "E. coli (ATCC-BAA 2340)", "value": 2, "unit": "µM"},
      {"measurement": "MIC, FBS", "setting": "E. coli (ATCC-BAA 2340)", "value": 16, "unit": "µM"},
      {"measurement": "MIC, Fe^3+", "setting": "E. coli (ATCC-BAA 2340)", "value": 2, "unit": "µM"},
      {"measurement": "MIC, K^+", "setting": "E. coli (ATCC-BAA 2340)", "value": 2, "unit": "µM"},
      {"measurement": "MIC, Mg^2+", "setting": "E. coli (ATCC-BAA 2340)", "value": 16, "unit": "µM"},
      {"measurement": "MIC, NH4^+", "setting": "E. coli (ATCC-BAA 2340)", "value": 2, "unit": "µM"},
      {"measurement": "MIC, Na^+", "setting": "E. coli (ATCC-BAA 2340)", "value": 4, "unit": "µM"}
    ]}
  ]
}
